Assay results: patent US12312599B2, “Methods, compositions, and kits for producing beige adipocytes and treating metabolic disorders” (MaineHealth, priority 2018, dated 2025)

Test system: Primary human subcutaneous white adipocytes
Assay: UCP1 qPCR in primary human subcutaneous white adipocytes
Type: cell-based
Settings: treated with SB
From the text: All primary cell lines isolated from WAT were generated from outgrowth of the stromal vascular fraction and purchased from commercial vendors. All cell lines were validated to be at least 95% positive for adipogenic precursors as determined by flow cytometry for PDGFRα. Human white preadipocytes (HWP-c) cells, purchased from PromoCell (C-12730), were isolated from subcutaneous adipose tissue of a person with a BMI of 28. Normal human preadipocytes, purchased from Lonza (PT-5020), were isolated from subcutaneous adipose tissue of a person with a BMI of 21. Type 2 diabetic human preadipocytes, purchased from Lonza (PT-5022), were isolated from subcutaneous adipose tissue of a person with a BMI of 42.1. Type 2 diabetic human preadipocytes, purchased from Zenbio (OPD-F-3), were isolated from omental adipose tissue of a person with a BMI of 38.6. Type 2 diabetic human preadipocytes, purchased from Zenbio (SPD-F-3), were isolated from subcutaneous adipose tissue of a person with a BMI of 53.5. Cryopreserved cells were thawed and seeded in a 100×20 mm TC dish and treated as passage 0. Primary adipogenic precursors were expanded in DMEM containing 10% fetal bovine serum. Medium was changed daily and cells were cultured at 37° C. in a 5% CO2 incubator. Upon 80% confluence, cells are split and passaged at a ratio of 1:6 (Passage 1). […]

SMILES: NC(=O)c1ccc(-c2nc(-c3ccc4c(c3)OCO4)c(-c3ccccn3)[nH]2)cc1 [SB, SB431542]
- UCP1 expression: enhanced expression
